Reference: US8415469B2, “Compounds and methods for kinase modulation, and indications therefor” (Plexxikon Inc., priority 2005, dated 2013)

Legend:
Type in all cases: biochemical
Flt4 = target: T1, Flt4 (Homo sapiens, UniProt P35916); experiment: AlphaScreen kinase assay, Flt4; settings: read-out: IC50, activity toward kinase Flt4
T1 construct: purchased ProQinase GmbH (Freiburg, Germany)
In short: (§1)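 Uses phospho-specific antibody on acceptor beads plus streptavidin donor beads capturing biotinylated peptide substrate; singlet oxygen from donor excites nearby acceptor. Inhibitors tested in 8-point, 1:3 titrations starting from 20 mM DMSO solutions.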

Pyk2 = target: T2, Pyk2 (Homo sapiens, UniProt Q14289); experiment: AlphaScreen kinase assay, Pyk2; settings: read-out: IC50, activity toward kinase Pyk2
T2 construct: purchased Upstate Biotechnology
T2 sequence (Q14289 whole entry): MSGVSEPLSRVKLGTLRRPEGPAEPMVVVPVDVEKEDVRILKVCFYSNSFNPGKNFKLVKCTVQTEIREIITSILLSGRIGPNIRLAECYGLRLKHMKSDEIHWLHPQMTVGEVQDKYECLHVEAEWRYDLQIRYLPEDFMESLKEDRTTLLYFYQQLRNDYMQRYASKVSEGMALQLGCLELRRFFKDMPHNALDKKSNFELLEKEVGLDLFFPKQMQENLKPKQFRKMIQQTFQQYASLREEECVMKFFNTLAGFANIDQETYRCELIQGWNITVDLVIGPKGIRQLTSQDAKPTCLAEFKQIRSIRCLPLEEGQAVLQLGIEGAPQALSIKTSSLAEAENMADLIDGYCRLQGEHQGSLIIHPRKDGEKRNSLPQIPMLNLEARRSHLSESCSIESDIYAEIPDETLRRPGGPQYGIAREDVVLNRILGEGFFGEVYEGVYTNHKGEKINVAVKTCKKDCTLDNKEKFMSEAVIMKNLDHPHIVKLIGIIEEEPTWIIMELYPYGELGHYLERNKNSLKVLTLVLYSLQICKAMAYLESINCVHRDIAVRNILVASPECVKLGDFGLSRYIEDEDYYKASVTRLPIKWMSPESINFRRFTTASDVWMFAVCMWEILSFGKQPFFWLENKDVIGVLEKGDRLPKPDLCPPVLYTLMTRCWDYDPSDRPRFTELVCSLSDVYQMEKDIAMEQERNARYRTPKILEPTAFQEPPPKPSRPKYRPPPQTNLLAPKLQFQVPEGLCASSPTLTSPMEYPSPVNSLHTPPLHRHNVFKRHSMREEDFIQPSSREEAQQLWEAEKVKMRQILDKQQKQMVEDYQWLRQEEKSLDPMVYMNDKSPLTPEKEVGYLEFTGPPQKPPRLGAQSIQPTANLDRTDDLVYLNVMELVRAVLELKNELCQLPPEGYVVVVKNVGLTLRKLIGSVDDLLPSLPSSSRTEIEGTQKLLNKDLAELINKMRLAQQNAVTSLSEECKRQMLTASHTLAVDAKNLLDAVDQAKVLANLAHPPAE

Itk = target: T3, Itk (Homo sapiens, UniProt Q08881); experiment: AlphaScreen kinase assay, Itk; settings: read-out: IC50, activity toward kinase Itk
T3 sequence (Q08881 1-620): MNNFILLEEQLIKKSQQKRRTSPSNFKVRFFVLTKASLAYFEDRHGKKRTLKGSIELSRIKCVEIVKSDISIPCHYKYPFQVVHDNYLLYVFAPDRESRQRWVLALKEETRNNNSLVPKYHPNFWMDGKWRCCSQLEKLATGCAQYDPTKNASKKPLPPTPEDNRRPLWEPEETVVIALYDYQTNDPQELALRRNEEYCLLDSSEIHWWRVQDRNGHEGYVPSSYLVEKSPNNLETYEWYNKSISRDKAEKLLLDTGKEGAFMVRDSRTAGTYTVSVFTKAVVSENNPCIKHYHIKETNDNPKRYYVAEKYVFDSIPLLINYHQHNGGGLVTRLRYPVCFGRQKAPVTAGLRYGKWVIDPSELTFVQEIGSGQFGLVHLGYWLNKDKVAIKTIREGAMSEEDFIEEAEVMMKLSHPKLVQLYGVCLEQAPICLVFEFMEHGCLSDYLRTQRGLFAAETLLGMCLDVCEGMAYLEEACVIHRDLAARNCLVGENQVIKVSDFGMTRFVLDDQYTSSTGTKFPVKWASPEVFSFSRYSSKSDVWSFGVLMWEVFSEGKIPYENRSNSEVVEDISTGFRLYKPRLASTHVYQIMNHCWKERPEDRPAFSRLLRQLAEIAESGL
In short: as §1

Jnk2 = target: T4, Jnk2 (Homo sapiens, UniProt P45984); experiment: AlphaScreen kinase assay, Jnk2; settings: read-out: IC50, activity toward kinase Jnk2
T4 construct: purchased Roche Protein Expression Group (Indianapolis, IN)
T4 sequence (P45984 whole entry): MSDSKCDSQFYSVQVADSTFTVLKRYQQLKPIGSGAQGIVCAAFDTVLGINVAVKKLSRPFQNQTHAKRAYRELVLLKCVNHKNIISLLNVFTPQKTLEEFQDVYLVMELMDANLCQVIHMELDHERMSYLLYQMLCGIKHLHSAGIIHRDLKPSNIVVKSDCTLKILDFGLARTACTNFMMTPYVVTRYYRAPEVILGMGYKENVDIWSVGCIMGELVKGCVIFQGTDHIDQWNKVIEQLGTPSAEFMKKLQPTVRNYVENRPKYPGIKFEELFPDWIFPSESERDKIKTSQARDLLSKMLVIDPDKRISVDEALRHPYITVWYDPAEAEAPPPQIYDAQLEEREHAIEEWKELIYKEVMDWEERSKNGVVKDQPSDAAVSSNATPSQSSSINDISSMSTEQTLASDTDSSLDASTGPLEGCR
In short: as §1

MAP2K1 = target: T5, MAP2K1 (Homo sapiens, UniProt Q02750); experiment: Z'-Lyte FRET kinase assay (Invitrogen), MAP2K1; settings: read-out: IC50, activity toward kinase MAP2K1
T5 construct: purchased Invitrogen (assay run by Invitrogen)
T5 sequence (Q02750 whole entry): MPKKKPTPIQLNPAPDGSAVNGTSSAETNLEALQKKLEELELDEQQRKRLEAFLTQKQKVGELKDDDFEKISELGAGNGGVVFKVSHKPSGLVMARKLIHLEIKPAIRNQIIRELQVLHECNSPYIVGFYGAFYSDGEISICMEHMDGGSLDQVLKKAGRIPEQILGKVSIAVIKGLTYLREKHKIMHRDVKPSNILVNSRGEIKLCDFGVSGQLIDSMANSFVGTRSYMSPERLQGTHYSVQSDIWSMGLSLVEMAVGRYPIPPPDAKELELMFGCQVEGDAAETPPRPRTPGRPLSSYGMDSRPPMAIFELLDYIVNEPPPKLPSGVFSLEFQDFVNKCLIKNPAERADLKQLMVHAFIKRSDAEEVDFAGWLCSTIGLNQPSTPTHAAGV
Excerpt: For example, direct radiometric, indirect FRET or AlphaScreen assays may be used to assess the level of phosphorylation of a substrate in the presence of test compounds in order to determine the inhibitory affect of the compound on the kinase. […] For these assays, compounds of the invention were screened by Invitrogen using Z′-Lyte™ kinase assay.
Briefly, the Invitrogen kinase assay involves use of a specific peptide substrate optimized for each kinase, containing a fluorophore at each end that make up the FRET pair. The peptide sensitivity to proteolytic cleavage depends on phosphorylation of the peptide. Non-phosphorylated peptide is cleaved by a protease while peptide phosphorylated by the kinase is not cleaved. Cleavage of the peptide disrupts the FRET between the donor (coumarin) and acceptor (fluorescein) fluorophores, resulting in an increase in the ratio of donor emission to acceptor emission. The emission ratio of coumarin to fluorescein is used to assess the reaction progress. […] Thus, the assay involves a kinase reaction in the presence of varying concentrations of a given compound, a development reaction with site specific protease, and detection of the fluorescent emission ratio of coumarin and fluorscein. […] Reaction conditions for each kinase are determined to provide optimal reaction times, incubation temperature, kinase and ATP concentrations. Test samples are made up in 1× kinase buffer (50 mM HEPES pH 7.5, 50 mM MgCl2, 5 mM EGTA, 0.05% BRIJ-35) and compound at desired concentration prepared in DMSO such that the final DMSO is 1%. […] All kinase except for MAP2K1 were at 10 μM ATP in the kinase reaction, while MAP2K1 was at 100 μM. Samples are mixed and the kinase reaction is incubated 1 hour at room temperature, after which 5 μl of development solution is added and mixed. After incubation for another 1 hour at room temperature, 5 μl of stop reagent is added to each sample and mixed. The fluorescence signals are measured to determine the emission ratio.

T1 sequence (P35916 25-1363): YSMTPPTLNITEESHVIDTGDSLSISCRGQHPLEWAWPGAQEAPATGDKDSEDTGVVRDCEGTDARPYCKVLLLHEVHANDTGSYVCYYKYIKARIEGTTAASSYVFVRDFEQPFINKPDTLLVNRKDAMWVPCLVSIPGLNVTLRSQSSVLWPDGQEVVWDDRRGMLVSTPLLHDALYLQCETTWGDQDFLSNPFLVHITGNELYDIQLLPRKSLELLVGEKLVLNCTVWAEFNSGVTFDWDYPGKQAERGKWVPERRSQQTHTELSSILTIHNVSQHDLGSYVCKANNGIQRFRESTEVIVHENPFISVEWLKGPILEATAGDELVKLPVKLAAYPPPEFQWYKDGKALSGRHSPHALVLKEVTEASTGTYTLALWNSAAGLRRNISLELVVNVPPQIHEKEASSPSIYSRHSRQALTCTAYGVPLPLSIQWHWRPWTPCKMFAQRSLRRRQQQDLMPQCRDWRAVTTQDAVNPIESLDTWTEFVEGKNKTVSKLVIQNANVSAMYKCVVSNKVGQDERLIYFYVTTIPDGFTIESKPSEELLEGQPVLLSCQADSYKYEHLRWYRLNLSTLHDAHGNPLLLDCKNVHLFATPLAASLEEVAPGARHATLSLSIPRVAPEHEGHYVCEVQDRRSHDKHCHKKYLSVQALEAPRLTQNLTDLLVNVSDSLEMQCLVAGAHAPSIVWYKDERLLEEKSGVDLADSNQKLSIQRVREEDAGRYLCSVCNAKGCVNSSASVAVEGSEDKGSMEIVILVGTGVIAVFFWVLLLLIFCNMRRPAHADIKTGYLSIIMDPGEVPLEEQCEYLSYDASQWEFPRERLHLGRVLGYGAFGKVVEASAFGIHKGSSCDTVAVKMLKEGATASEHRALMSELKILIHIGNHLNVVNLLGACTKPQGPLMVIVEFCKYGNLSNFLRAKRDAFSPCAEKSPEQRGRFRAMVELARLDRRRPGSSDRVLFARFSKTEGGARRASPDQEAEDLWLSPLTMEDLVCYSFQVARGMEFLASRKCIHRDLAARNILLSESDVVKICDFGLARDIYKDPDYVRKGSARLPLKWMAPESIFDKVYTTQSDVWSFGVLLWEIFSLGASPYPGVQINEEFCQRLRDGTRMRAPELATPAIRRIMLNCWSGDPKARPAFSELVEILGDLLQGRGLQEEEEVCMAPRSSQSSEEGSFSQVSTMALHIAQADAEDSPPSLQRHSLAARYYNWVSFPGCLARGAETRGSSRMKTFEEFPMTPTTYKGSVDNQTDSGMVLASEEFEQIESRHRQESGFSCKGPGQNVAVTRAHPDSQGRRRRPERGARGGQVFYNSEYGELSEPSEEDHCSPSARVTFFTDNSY

`O=C(c1ccc(O)cc1)c1c[nH]c2ncc(-c3cccs3)cc12` [Compound P-0024, (4-Hydroxy-phenyl)-(5-thiophen-2-yl-1H-pyrrolo[2,3-b]pyridin-3-yl)-methanone] was tested, and the IC50 (Flt4) was at most 10 µM, the IC50 (Pyk2) was at most 10 µM and the IC50 (Itk) was at most 10 µM.
With `CS(=O)(=O)c1cccc(-c2cnc3[nH]cc(C(O)c4c(F)ccc(F)c4F)c3c2)c1` (stereo not drawn) [Compound P-0020] the IC50 (Itk) was at most 10 µM.
`CC(=O)Nc1cccc(-c2cnc3[nH]cc(C(=O)c4cc(O)ccc4F)c3c2)c1` [Compound P-0001] gave an IC50 (Flt4) of at most 10 µM, an IC50 (Jnk2) of at most 10 µM and an IC50 (MAP2K1) of at most 10 µM. The IC50 (Pyk2) was at most 10 µM.
`O=C(c1cccc(O)c1)c1c[nH]c2ncc(-c3cccs3)cc12` [Compound P-0196] was tested, and the IC50 (Flt4) was at most 10 µM, the IC50 (Jnk2) was at most 10 µM and the IC50 (Itk) was at most 10 µM.
With `O=C(c1cccc(O)c1F)c1c[nH]c2ncc(Br)cc12` [Compound P-0067, (5-bromo-1H-pyrrolo[2,3-b]pyridin-3-yl)-(2-fluoro-3-hydroxy-phenyl)-methanone] the IC50 (Itk) was at most 10 µM.
Work on `COc1ccc(C(=O)c2c[nH]c3ncc(-c4cccc(/C=C/C(=O)O)c4)cc23)c(Cl)c1` [Compound P-0015] yielded an IC50 (Jnk2) of at most 10 µM, an IC50 (MAP2K1) of at most 10 µM and an IC50 (Pyk2) of at most 10 µM.
Compound `CS(=O)(=O)c1cccc(-c2cnc3[nH]cc(C(=O)c4cc(O)ccc4F)c3c2)c1` [Compound P-0008, (2-Fluoro-5-hydroxy-phenyl)-[5-(3-methanesulfonyl-phenyl)-1H-pyrrolo[2,3-b]pyridin-3-yl]-methanone] has an IC50 (MAP2K1) of at most 10 µM and an IC50 (Itk) of at most 10 µM.
Compound `O=C(c1cccc(O)c1)c1c[nH]c2ncccc12` [Compound P-0011] has an IC50 (Flt4) of at most 10 µM and an IC50 (MAP2K1) of at most 10 µM.
Work on `Cn1cc(C(F)(F)F)c(-c2ccc(S(=O)(=O)NCc3c[nH]c4ncccc34)s2)n1` [Compound P-0041] yielded an IC50 (Flt4) of at most 10 µM, an IC50 (MAP2K1) of at most 10 µM and an IC50 (Pyk2) of at most 10 µM.
For `CCCS(=O)(=O)Nc1ccc(F)c(C(=O)c2c[nH]c3ncc(OC)cc23)c1F` [Compound P-0806, Propane-1-sulfonic acid [2,4-difluoro-3-(5-methoxy-1H-pyrrolo[2,3-b]pyridine-3-carbonyl)-phenyl]-amide], the IC50 (MAP2K1) was at most 10 µM and the IC50 (Pyk2) was at most 10 µM.
Work on `O=C(O)/C=C/c1cccc(-c2cnc3[nH]cc(C(=O)c4cc(O)ccc4F)c3c2)c1` [Compound P-0010] yielded an IC50 (MAP2K1) of at most 10 µM and an IC50 (Pyk2) of at most 10 µM.
With `Nc1cccc(-c2cnc3[nH]cc(C(=O)c4cccc(O)c4)c3c2)c1` [Compound P-0003] the IC50 (Flt4) was at most 10 µM, the IC50 (MAP2K1) was at most 10 µM and the IC50 (Itk) was at most 10 µM.
In the case of `O=C(c1cccc(O)c1)c1c[nH]c2ncc(Br)cc12` [Compound P-0019], the IC50 (Flt4) is reported as at most 10 µM and the IC50 (Itk) is reported as at most 10 µM.
`Cc1ccc(S(=O)(=O)NCc2c[nH]c3ncccc23)cc1` [Compound P-0058] gave an IC50 (MAP2K1) of at most 10 µM and an IC50 (Pyk2) of at most 10 µM.
For `O=C(c1cccc(O)c1F)c1c[nH]c2ncc(-c3cccs3)cc12` [Compound P-0521, (2-fluoro-3-hydroxy-phenyl)-(5-thiophen-2-yl-1H-pyrrolo[2,3-b]pyridin-3-yl)-methanone], the IC50 (Flt4) was at most 10 µM, the IC50 (Jnk2) was at most 10 µM and the IC50 (Pyk2) was at most 10 µM. It also gave an IC50 (Itk) of at most 10 µM.
Work on `O=C(c1cc(O)ccc1F)c1c[nH]c2ncccc12` [Compound P-0005] yielded an IC50 (Flt4) of at most 10 µM, an IC50 (Jnk2) of at most 10 µM and an IC50 (MAP2K1) of at most 10 µM.
`CS(=O)(=O)Nc1cccc(-c2cnc3[nH]cc(C(=O)c4cccc(O)c4F)c3c2)c1` [Compound P-0038, N-{3-[3-(2-Fluoro-3-hydroxy-benzoyl)-1H-pyrrolo[2,3-b]pyridin-5-yl]-phenyl}-methanesulfonamide] gave an IC50 (Itk) of at most 10 µM.
`Nc1ccnc2[nH]cc(C(=O)c3ccccc3)c12` [Compound P-0029] was tested, and the IC50 (Flt4) was at most 10 µM and the IC50 (MAP2K1) was at most 10 µM.
Work on `Cc1c(O)cccc1C(=O)c1c[nH]c2ncc(-c3ccccc3)cc12` [Compound P-0016, (3-Hydroxy-2-methyl-phenyl)-(5-phenyl-1H-pyrrolo[2,3b]pyridin-3-yl)-methanone] yielded an IC50 (Jnk2) of at most 10 µM and an IC50 (Itk) of at most 10 µM.
In the case of `NC(=O)c1cccc(-c2cnc3[nH]cc(C(=O)c4cccc(O)c4F)c3c2)c1` [Compound P-0034, 3-[3-(2-Fluoro-3-hydroxy-benzoyl)-1H-pyrrolo[2,3-b]pyridin-5-yl]benzamide], the IC50 (Jnk2) is reported as at most 10 µM and the IC50 (Itk) is reported as at most 10 µM.
For `O=C(c1cccc(O)c1)c1c[nH]c2nccc(Cl)c12` [Compound P-0012], the IC50 (Flt4) was at most 10 µM and the IC50 (MAP2K1) was at most 10 µM.
`NC(=O)c1ccc(-c2ccnc3[nH]cc(C(=O)c4cc(F)ccc4F)c23)cc1` [Compound P-0013] was tested, and the IC50 (Jnk2) was at most 10 µM and the IC50 (Itk) was at most 10 µM.
With `Nc1cccc(-c2cnc3[nH]cc(C(=O)c4cc(O)ccc4F)c3c2)c1` [Compound P-0002] the IC50 (MAP2K1) was at most 10 µM and the IC50 (Itk) was at most 10 µM.
`Nc1cccc(-c2cnc3[nH]cc(C(=O)c4cccc(O)c4F)c3c2)c1` [Compound P-0004, [5-(3-amino-phenyl)-1H-pyrrolo[2,3-b]pyridin-3-yl]-(2-fluoro-3-hydroxy-phenyl)methanone] gave an IC50 (Itk) of at most 10 µM.
For `Cc1c(O)cccc1C(=O)c1c[nH]c2ncc(-c3cccnc3)cc12` [Compound P-0006, (3-Hydroxy-2-methyl-phenyl)-(5-pyridin-3-yl-1H-pyrrolo[2,3b]pyridin-3-yl)-methanone], the IC50 (Jnk2) was at most 10 µM, the IC50 (MAP2K1) was at most 10 µM and the IC50 (Itk) was at most 10 µM.
With `O=C(c1cccc(O)c1)c1c[nH]c2ncc(Nc3ccccc3)cc12` [Compound P-0025] the IC50 (Jnk2) was at most 10 µM and the IC50 (Itk) was at most 10 µM.
`O=C(c1cccc(O)c1F)c1c[nH]c2ncc(-c3cccnc3)cc12` [Compound P-0027, (2-Fluoro-3-hydroxy-phenyl)-(5-pyridin-3-yl-1H-pyrrolo[2,3-b]pyridin-3-yl)-methanone] gave an IC50 (Jnk2) of at most 10 µM and an IC50 (Itk) of at most 10 µM.
`CC(=O)Nc1cccc(-c2cnc3[nH]cc(C(=O)c4cccc(O)c4F)c3c2)c1` [Compound P-0035, N-{3-[3-(2-Fluoro-3-hydroxy-benzoyl)-1H-pyrrolo[2,3-b]pyridin-5-yl]-phenyl}-acetamide] gave an IC50 (Jnk2) of at most 10 µM and an IC50 (Itk) of at most 10 µM.
With `O=C(c1cccc(O)c1F)c1c[nH]c2ncc(-c3ccccc3)cc12` [Compound P-0036, (2-fluoro-3-hydroxy-phenyl)-(5-phenyl-1H-pyrrolo[2,3-b]pyridin-3-yl)-methanone] the IC50 (Itk) was at most 10 µM.
Work on `Oc1ccc(F)c(C(O)c2c[nH]c3ncc(-c4cccnc4)cc23)c1F` (stereo not drawn) [Compound P-0009, 2,4-difluoro-3-[hydroxy-(5-pyridin-3-yl-1H-pyrrolo[2,3-b]pyridin-3-yl)-methyl]-phenol] yielded an IC50 (Jnk2) of at most 10 µM and an IC50 (Itk) of at most 10 µM.
